From patent US9012445B2, “Substituted 4-(1H-pyrazol-4-yl)benzyl analogues as positive allosteric modulators of mAChR M1 receptors” (Vanderbilt University, priority 2012, dated 2015)

Biological target: T1, mAChR M1 (Homo sapiens, UniProt P11229)
T1 construct: expressed in transfected cells; host or cells: CHO-K1
T1 sequence (P11229 1-460): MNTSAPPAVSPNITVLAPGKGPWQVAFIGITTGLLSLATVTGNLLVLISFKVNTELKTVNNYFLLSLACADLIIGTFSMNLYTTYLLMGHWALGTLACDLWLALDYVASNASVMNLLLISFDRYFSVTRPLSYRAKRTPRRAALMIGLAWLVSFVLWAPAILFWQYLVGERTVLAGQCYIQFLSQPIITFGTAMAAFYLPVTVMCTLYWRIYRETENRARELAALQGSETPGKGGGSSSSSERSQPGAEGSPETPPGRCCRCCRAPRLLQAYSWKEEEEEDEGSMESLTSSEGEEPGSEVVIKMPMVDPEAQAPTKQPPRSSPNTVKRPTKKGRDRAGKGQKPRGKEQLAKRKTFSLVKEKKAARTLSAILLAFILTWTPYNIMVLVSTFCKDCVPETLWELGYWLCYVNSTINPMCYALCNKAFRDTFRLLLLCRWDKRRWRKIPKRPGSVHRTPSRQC
Assay: mAChR M1 cell-based functional assay (calcium mobilization, potentiation of EC20 acetylcholine response in CHO-K1 cells)
Conditions: for Emax: CHO-K1, maximal response of curve fit or response at 30 μM test compound, as % of response to an about EC80 ACh concentration, read-out: Emax (% ACh maximum at 30 μM); for EC50: positive allosteric modulation of EC20 acetylcholine response, >10,000 estimated where no plateau in the curve
Excerpt: Chinese hamster ovary (CHO-K1) cells stably expressing rat (r)M1 were purchased from the American Type Culture Collection and cultured according to their indicated protocol. CHO cells stably expressing human (h)M2, hM3, and hM5 were described previously (Levey, A. I., et al., J. Neurosci. 1991, 11, 3218-3226.); hM1 and hM4 cDNAs were purchased from Missouri S&T cDNA Resource; rM4 cDNA was provided by T. I. Bonner (National Institutes of Health, Bethesda, Md.). rM2 and rM3 were cloned from a rat brain cDNA library and sequence verified. hM1, rM2, rM3, hM4, and rM4 cDNAs were used to stably transfect CHO-K1 cells purchased from the American Type Culture Collection using Lipofectamine-2000. To make stable rM2, hM2, hM4, and rM4 cell lines for use in calcium mobilization assays, these cells also were stably transfected with a chimeric G-protein (Gqi5) (provided by B. R. Conklin, University of California, San Francisco) using Lipofectamine 2000. rM1, hM1, rM3, hM3, rM5, and hM5 cells were grown in Ham's F-12 medium containing 10% heat-inactivated fetal bovine serum (FBS), 20 mM HEPES, and 50 μg/mL G418 sulfate. rM2-Gqi5, hM2Gqi5, and hM4Gqi5 cells were grown in the same medium also containing 500 μg/mL Hygromycin B. Stable rM4Gqi5 cells were grown in DMEM containing 10% heat-inactivated FBS, 20 mM HEPES, 400 μg/mL G418 sulfate, and 500 μg/mL Hygromycin B.
For high throughput measurement of agonist-evoked increases in intracellular calcium, CHO-K1 cells stably expressing muscarinic receptors were plated in growth medium lacking G418 and hygromycin at 15,000 cells/20 μL/well in Greiner 384-well black-walled, tissue culture (TC)-treated, clear-bottom plates (VWR). Cells were incubated overnight at 37° C. and 5% CO2. The next day, cells were washed using an ELX 405 (BioTek) with four washes (80 μL) of assay buffer then […], 20 μL of Fluo-4/acetoxymethyl ester (Invitrogen, Carlsbad, Calif.) prepared as a 2.3 mM stock in DMSO and mixed in a 1:1 ratio with 10% (w/v) Pluronic F-127 and diluted in assay buffer was added to the wells and the cell plates were incubated for […] at 37° C. and 5% CO2. Dye was removed by washing with the ELX 405 (four 80 μL washes of assay buffer) then aspirated to 20 μL. Compound master plates were formatted in an 11 point CRC format (1:3 dilutions) in 100% DMSO with a starting concentration of 10 mM using the BRAVO liquid handler (Agilent). Test compound CRCs were then transferred to daughter plates ([…]) using the Echo acoustic plate reformatter (Labcyte, Sunnyvale, Calif.) and then diluted into assay buffer (40 μL) to a 2× stock using a Thermo Fisher Combi (Thermo Fisher Scientific, Waltham, Mass.).
Calcium flux was measured using the Functional Drug Screening System (FDSS) 6000 (Hamamatsu Corporation, Tokyo, Japan) as an increase in the fluorescent static ratio. Compounds were applied to cells (20 μL, 2×) using the automated system of the FDSS 6000 at 4 s into the 300 s protocol and the data were collected at 1 Hz. At 144 s into the 300 s protocol, 10 μL of an EC20 concentration of the muscarinic receptor agonist acetylcholine was added (5×), followed by the addition of 12 μL an EC80 concentration of acetylcholine at the 230 s time point (5×). Agonist activity was analyzed as a concentration-dependent increase in calcium mobilization upon compound addition. Positive allosteric modulator activity was analyzed as a concentration-dependent increase in the EC20 acetylcholine response. Antagonist activity was analyzed as a concentration-dependent decrease in the EC80 acetylcholine response. Concentration-response curves were generated using a four-parameter logistical equation in XLFit curve fitting software (IDBS, Bridgewater, N.J.) for Excel (Microsoft, Redmond, Wash.) or Prism (GraphPad Software, Inc., San Diego, Calif.).
The calcium mobilization assay was also used to determine “efficacy”. […]

Cn1cc(-c2ccc(Cn3cc(S(=O)(=O)CCNC(=O)c4ccno4)c4c(F)cc(F)cc43)c(F)c2)cn1 [Compound B2]
Emax: 27%
EC50: 2.8 µM

Cn1cc(-c2ccc(Cn3cc(S(=O)(=O)CCNC(=O)c4ccncc4)c4c(F)cc(F)cc43)c(F)c2)cn1 [Compound B31]
Emax: 30%
EC50: > 10 µM

Cn1cc(-c2ccc(CN3C(=O)CSc4ccccc43)c(F)c2)cn1 [Compound B16, 4-(2-fluoro-4-(1-methyl-1H-pyrazol-4-yl)benzyl)-2H-benzo[b][1,4]thiazin-3(4H)-one]
Emax: 32%
EC50: > 10 µM

Cn1cc(-c2ccc(CNc3ccccc3S(C)(=O)=O)c(F)c2)cn1 [Compound B15]
Emax: 34%
EC50: > 10 µM

Cn1cc(-c2ccc(Cn3cc(S(=O)(=O)CCNC(=O)c4ccn[nH]4)c4c(F)cc(F)cc43)c(F)c2)cn1 [Compound B12]
Emax: 31%
EC50: 8.1 µM

Cn1cc(-c2ccc(Cn3cc(S(C)(=O)=O)c4ccccc43)c(F)c2)cn1 [Compound B7]
Emax: 64%
EC50: 3.9 µM

Cn1cc(-c2ccc(Cn3c(=O)ccc4ccccc43)c(F)c2)cn1 [Compound B6]
Emax: 45%
EC50: 3.6 µM

Cc1cc(NC(=O)c2cn(Cc3ccc(-c4cnn(C)c4)cc3F)c3ccccc23)no1 [Compound B8]
Emax: 43%
EC50: 5 µM

Cn1cc(-c2ccc(CN3C(=O)NCc4ccccc43)c(F)c2)cn1 [Compound B19]
Emax: 46%
EC50: > 10 µM

Cn1cc(-c2ccc(Cn3cc(S(=O)(=O)CCNC(=O)c4cccc(F)c4)c4c(F)cc(F)cc43)c(F)c2)cn1 [Compound B30]
Emax: 35%
EC50: > 10 µM

Cn1cc(-c2ccc(CN3CC[S+]([O-])c4ccccc43)c(F)c2)cn1 (stereo not shown) [Compound B18]
Emax: 31%
EC50: > 10 µM

Cn1cc(-c2ccc(Cn3cc(C(=O)Nc4cccnc4)c4ccccc43)c(F)c2)cn1 [Compound B9, 1-(2-fluoro-4-(1-methyl-1H-pyrazol-4-yl)benzyl)-N-(pyridin-3-yl)-1H-indole-3-carboxamide]
Emax: 50%
EC50: 5.4 µM

Cn1cc(-c2ccc(Cn3cc(C(=O)O)c4ccccc43)c(F)c2)cn1 [Compound B27]
Emax: 48%
EC50: > 10 µM

Cn1cc(-c2ccc(CNc3ccccc3[S+](C)[O-])c(F)c2)cn1 (stereo not shown) [Compound B17]
Emax: 39%
EC50: > 10 µM

Cn1cc(-c2ccc(Cn3cc(C(=O)NCCc4ccccn4)c4ccccc43)c(F)c2)cn1 [Compound B28]
Emax: 35%
EC50: > 10 µM

Cn1cc(-c2ccc(Cn3c(=O)sc4ccccc43)c(F)c2)cn1 [Compound B14]
Emax: 45%
EC50: > 10 µM

Cn1cc(-c2ccc(Cn3cc(S(=O)(=O)CCNC(=O)c4cnccn4)c4c(F)cc(F)cc43)c(F)c2)cn1 [Compound B4, N-(2-((4,6-difluoro-1-(2-fluoro-4-(1-methyl-1H-pyrazol-4-yl)benzyl)-1H-indol-3-yl)sulfonyl)ethyl)pyrazine-2-carboxamide]
Emax: 52%
EC50: 3.4 µM

Cn1cc(-c2ccc(Cn3cc(S(=O)(=O)CCNC(=O)c4cccnn4)c4c(F)cc(F)cc43)c(F)c2)cn1 [Compound B10]
Emax: 36%
EC50: 5.6 µM

Cn1cc(-c2ccc(CN3C(=O)COc4ccccc43)c(F)c2)cn1 [Compound B23]
Emax: 44%
EC50: > 10 µM

Cn1cc(-c2ccc(Cn3nc4ccccn4c3=O)c(F)c2)cn1 [Compound B13]
Emax: 29%
EC50: 9.4 µM

Cn1cc(-c2ccc(CN3C(=O)CCc4ccccc43)c(F)c2)cn1 [Compound B22]
Emax: 44%
EC50: > 10 µM

Cn1cc(-c2ccc(Cn3cc(S(=O)(=O)CCNC(=O)c4ccnnc4)c4c(F)cc(F)cc43)c(F)c2)cn1 [Compound B11]
Emax: 45%
EC50: 7.6 µM

Cn1cc(-c2ccc(CN3Cc4ccccc4C3)c(F)c2)cn1 [Compound B5]
Emax: 38%
EC50: 3.5 µM

COc1cc2ccccc2n(Cc2ccc(-c3cnn(C)c3)cc2F)c1=O [Compound B1, 1-(2-fluoro-4-(1-methyl-1H-pyrazol-4-yl)benzyl)-3-methoxyquinolin-2(1H)-one]
Emax: 31%
EC50: 2.4 µM

Cn1cc(-c2ccc(CN3c4ccccc4CS3(=O)=O)c(F)c2)cn1 [Compound B24, 1-(2-fluoro-4-(1-methyl-1H-pyrazol-4-yl)benzyl)-1,3-dihydrobenzo[c]isothiazole 2,2-dioxide]
Emax: 39%
EC50: > 10 µM

Cn1cc(-c2ccc(CN3C(=O)CS(=O)(=O)c4ccccc43)c(F)c2)cn1 [Compound B21, 4-(2-fluoro-4-(1-methyl-1H-pyrazol-4-yl)benzyl)-2H-benzo[b][1,4]thiazin-3(4H)-one 1,1-dioxide]
Emax: 36%
EC50: > 10 µM

Cn1cc(-c2ccc(CN3C(=O)C[S+]([O-])c4ccccc43)c(F)c2)cn1 (stereo not shown) [Compound B20, 4-(2-fluoro-4-(1-methyl-1H-pyrazol-4-yl)benzyl)-2H-benzo[b][1,4]thiazin-3(4H)-one 1-oxide]
Emax: 41%
EC50: > 10 µM

Cn1cc(-c2ccc(CN3CC(C(=O)O)c4ccccc43)c(F)c2)cn1 (stereo not shown) [Compound B25]
Emax: 52%
EC50: > 10 µM

Cn1cc(-c2ccc(CN3Cc4ccccc4C3C(=O)O)c(F)c2)cn1 (stereo not shown) [Compound B26]
Emax: 61%
EC50: > 10 µM

Cn1cc(-c2ccc(CN3C(=O)OCc4ccccc43)c(F)c2)cn1 [Compound B3, 1-(2-fluoro-4-(1-methyl-1H-pyrazol-4-yl)benzyl)-1H-benzo[d][1,3]oxazin-2(4H)-one]
Emax: 61%
EC50: 3.1 µM

Cn1cc(-c2ccc(Cn3cc(S(=O)(=O)CCNC(=O)c4ccccn4)c4c(F)cc(F)cc43)c(F)c2)cn1 [Compound B29]
Emax: 34%
EC50: > 10 µM

Cn1cc(-c2ccc(Cn3cc(S(=O)(=O)CCNC(=O)c4cocn4)c4c(F)cc(F)cc43)c(F)c2)cn1 [Compound B32]
Emax: 57%
EC50: > 10 µM
